Assay [1] relates to ESC-T cells. The experiment in a line: EdU incorporation proliferation assay. It is filed as cell-based, human. An excerpt:
Other groups have shown that DHEA has anti-proliferative effects in a number of cell-lines and tissues. Thus, it was hypothesized that perhaps the PPP inhibitors prevent the proliferation of ESC-Ts and that this is an additional effect, independent of their role in decidualization inhibition. In a human uterus the stromal cells go through a cyclical oscillation between proliferation and differentiation, determined by the hormonal milieu. ESC-Ts in vitro remain in the proliferative state until they are exposed to differentiation media, which causes the cells to halt cell division and enter differentiation. Proliferation of ESC-T cells were monitored by EdU incorporation in vitro, which indicates entry into the S-phase of the cell cycle, in the absence of the differentiation hormones.
Following 60 hr of the treatment indicated in the experiment, EdU was added to the culture medium at a concentration of […]. Cells were harvested and stained using the Click-iT EdU Flow Cytometry Kit (Invitrogen). Quantitative data were collected using a BD FACSCalibur flow cytometer (Becton Dickinson, San Jose, Calif.) and analyzed with FlowJo software (TreeSTar, Inc., Ashland, Oreg.). For confocal microscopy, the cells were stained on coverslips using the same protocol. Nuclei were counterstained with TOPRO-iodide (Molecular probes) at a 1:500 dilution. Cells were mounted on slides using Vectashield (Vector Labs) and visualized using a Nikon C1 microscope.

In assay [2] the test system is FVB/NJ mice. The experiment in a line: Estrous cycles by vaginal smears in DHEA-fed mice. Format: in vivo, mouse. The procedure: To determine the reversibility of DHEA, mice were fed the two higher DHEA diets that prevented normal estrous cycles for two weeks followed by regular rodent chow for two weeks. Estrous cycles and pregnancy rates were recorded.
(§1) Female FVB/NJ mice were obtained from Jackson Laboratories (Bar Harbor, Me., USA). Regular rodent chow was supplemented with DHEA at 0.01%, 0.1% and 0.6% w/w. Three-week-old mice had access to food and water ad libitum. Mice were fed control or DHEA-supplemented chow for two weeks. The Animal Studies Committee at Washington University School of Medicine reviewed and approved all animal experiments. Animals were maintained according to the Guide for the Care and Use of Laboratory Animals provided by the Institute for Laboratory Animal Research.
Vaginal smears were performed daily starting at eight weeks of age, after puberty, and establishment of regular estrous cycles. Vaginal cells were collected in 10 μl of phosphate buffered saline (PBS) and evaluated for stage of estrous by one investigator by light microscopy.

In assay [3] the test system is FVB/NJ mice. The experiment in a line: Ovulation rate after PMSG and hCG in DHEA-fed mice. Format: in vivo, mouse.
Text: as §1
COCs were collected following superovulation with PMSG. Ovaries were removed and placed in M2 media (Sigma, St. Louis, Mo., USA). COCs were obtained by rupture of antral follicles with a syringe and needle. To collect denuded germinal vesicle (GV) oocytes, the cumulus cells were removed by gentle pipetting. The oviducts were removed from PMSG- and hCG-primed mice. The ampulla of the oviduct was punctured to release the clutch of ovulated oocytes 24 hr after hCG.

Data on one compound can be found in patent US9381193B2, “Contraceptive methods and compositions” (WASHINGTON UNIVERSITY, priority 2011, dated 2016).

As to `C[C@]12CC[C@H](O)CC1=CC[C@@H]1[C@@H]2CC[C@]2(C)C(=O)CC[C@@H]12` [DHEA, dehydroepiandrosterone], the “EdU-positive nuclei vs DMSO control” value in assay [1] (100 μM DHEA, 50 μM 6AN) is on record as “drastic decrease”. Besides, the “Proliferation by EdU geometric mean fluorescence intensity (flow cytometry)” value in assay [1] (4 independent experiments) was “decreases proliferation of ESC-Ts in a concentration dependent manner”. Besides, the Estrous cycle length result in assay [2] (0.01% DHEA diet, after two weeks) was “approximately five days longer than controls”. Moreover, in assay [2] (0.1% DHEA and 0.6% DHEA diet), the Estrous cycle stage result is reported as “remained in metestrus or diestrus for the entire evaluation period”. For the same compound, the “Number of ovulated oocytes” value in assay [3] (0.01% DHEA diet) stood at 10.8±2.8; in assay [3] (0.1% DHEA diet) it was 15±1.9; in assay [3] (0.6% DHEA diet), 7.1±1.4.
